Results from patent publication US20070299062A1 (The Procter & Gamble Company, priority 2006, published 2007).
Where two headings read alike, the source gives them in different places.

Experiments:
MCH-1R = MCH-1R (UniProt Q99705); experiment: MCH-1R competition binding assay
Description: In vitro binding and function assays are performed on membranes derived from cells or tissues expressing endogenous MCH1R. Competition binding assays are performed to identify high affinity compounds. Briefly, either radiolabeled or europium labeled MCH with varying concentrations of competitor compound which are incubated with membranes expressing the receptor. Rat brain membrane or cell lines, including but not limited to human Kelly neuroblastoma cells, A-431 epidermoid cells, and rat PC-12 cells are known to express endogenous MCH1R and are used in the assay. Binding is allowed to proceed until equilibrium is reached then bound labeled MCH is separated from free MCH by capturing membranes onto a filter. The filters are washed to remove loosely associated MCH and labeled MCH is quantified. Data is analyzed and IC50 and Ki are calculated to determine compound affinity.

5-HT2c receptor = target: T1, 5-HT2c receptor (Homo sapiens, UniProt P28335); experiment: 5-HT2c receptor binding assay (3H-mesulergine competition)
T1 construct: purchased Perkin-Elmer or Euroscreen (named only as possible suppliers)
T1 sequence (P28335 33-458): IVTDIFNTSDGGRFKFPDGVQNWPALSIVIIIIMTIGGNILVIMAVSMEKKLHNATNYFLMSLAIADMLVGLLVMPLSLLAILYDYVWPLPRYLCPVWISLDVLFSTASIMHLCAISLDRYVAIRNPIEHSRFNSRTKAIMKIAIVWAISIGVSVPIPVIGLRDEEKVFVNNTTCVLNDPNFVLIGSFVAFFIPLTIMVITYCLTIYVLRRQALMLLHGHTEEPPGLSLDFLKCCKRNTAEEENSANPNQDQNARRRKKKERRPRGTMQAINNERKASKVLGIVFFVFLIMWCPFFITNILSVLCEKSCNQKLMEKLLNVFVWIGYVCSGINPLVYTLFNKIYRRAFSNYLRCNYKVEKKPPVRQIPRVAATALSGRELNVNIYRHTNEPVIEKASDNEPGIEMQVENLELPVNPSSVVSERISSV
Description: MCH antagonist compounds are evaluated for binding to the serotonin 5-HT2c receptor to determine receptor selectivity. Binding activity is assessed using a competitive assay with ^3H-mesulergine (Perkin Elmer), a 5-HT2c selective ligand, on membrane containing the 5-HT2c receptor. Briefly, 1 nM ^3H-mesulergine and varying concentrations of the compound are incubated with 5-HT2c receptor membranes, following an incubation period, the membranes are washed and ^3H-mesulergine bound to membranes is measured in a liquid scintillation counter. The amount of bound ^3H-mesulergine at the varying concentration of competitor compound is used to derive the affinity (Ki) of the compound for the 5-HT2c receptor. 5-HT2c receptor containing membranes are readily available from several companies including Perkin-Elmer and Euroscreen.

[1] = 1 nM 3H-mesulergine, read-out: Ki (nM) binding data 5-HT2C

Row | Compound | Ki (MCH-1R) | Ki (5-HT2c receptor; [1]) | Ki (5-HT2c receptor)
1 | CS(=O)(=O)N1CCN(Cc2ccc3c(c2)CC[C@H](n2cnc4cc(-c5ccc(Cl)cc5)sc4c2=O)C3)CC1 [(S)-6-(4-Chlorophenyl)-3-(6-((4-methylsulfonyl)piperazin-1-yl)methyl)-1,2,3,4-tetrahydronapthalen-2-yl)thieno[3,2,-d]pyrimidin-4(3H)-one] | 65 nM | > 100000 nM | 
2 | CCN(CC)Cc1ccc2c(c1)CC[C@H](n1cnc3cc(-c4ccc(Cl)cc4)sc3c1=O)C2 [(S)-6-(4-Chlorophenyl)-3-(6-diethylaminomethyl-1,2,3,4-tetrahydronaphthalen-2-yl)-4a,7a-dihydro-3H-thieno[3,2-d]pyrimidin-4-one] | 13 nM |  | 6780 nM
3 | O=c1c2sc(-c3ccc(Cl)cc3)cc2ncn1[C@H]1CCc2cc(CN3CCCCC3)ccc2C1 [(S)-6-(4-Chlorophenyl)-3-(6-piperidin-1-ylmethyl-1,2,3,4-tetrahydronaphthalen-2-yl)thieno[3,2-d]pyrimidin-4(3H)-one] | 24.3 nM | 3730 nM | 
4 | CN1CCN(C2CCN(Cc3ccc4c(c3)CC[C@H](n3cnc5cc(-c6ccc(Cl)cc6)sc5c3=O)C4)CC2)CC1 [(S)-6-(4-Chlorophenyl)-3-(6-{[4-(4-methylpiperazin-1-yl)piperidin-1-yl]methyl}-1,2,3,4-tetrahydronapthalen-2-yl)thieno[3,2-d]pyrimidin-4(3H)-one] | 42 nM | 4790 nM | 
5 | O=c1c2sc(-c3ccc(Cl)cc3)cc2ncn1[C@H]1CCc2cc(CN3CCOCC3)ccc2C1 [(S)-6-(4-Chlorophenyl)-3-[6-(morpholinomethyl)-1,2,3,4-tetrahydronapthalene-2-yl]thieno[3,2-d]pyrimidin-4-(3H)-one] | 103 nM | > 100000 nM | 
6 | (S)-6-(4-Chlorophenyl)-3-(6-((4-morpholinopiperidin-1-yl)methyl)-1,2,3,4-tetrhaydronapthalene-2-yl)thieno[3,2,-d]pyrimidin-4-(3H)-one | 16 nM | > 100000 nM | 

More lines, in order of falling Ki (MCH-1R), values ahead:

Row | Ki (MCH-1R) | Ki (5-HT2c receptor; [1]) | Compound | Ki (5-HT2c receptor)
7 | 1020 nM | > 100000 nM | O=c1c2sc(-c3ccc(Cl)cc3)cc2ncn1[C@H]1CCc2cc(CN3CCS(=O)(=O)CC3)ccc2C1 [(S)-6-(4-Chlorophenyl)-3-[6-(1,1-dioxo-1λ^6-thiomorpholin-4-ylmethyl)-1,2,3,4-tetrahydronaphthalen-2-yl)thieno[3,2-d]pyrimidin-4(3H)-one] | 
8 | 397 nM | > 100000 nM | CC(=O)N1CCN(Cc2ccc3c(c2)CC[C@H](n2cnc4cc(-c5ccc(C#N)cc5)sc4c2=O)C3)CC1 [(S)-4-(3-(6-((4-acetylpiperazin-1-yl)methyl)-1,2,3,4-tetrahy] [(S)-4-(3-(6-((4-acetylpiperazin-1-yl)methyl)-1,2,3,4-tetrahydronaphthalen-2-yl)-4-oxo-3,4-dihydrothieno[3,2-d]pyrimidin-6-yl)benzonitrile] | 
9 | 13.7 nM | 3730 nM | O=c1c2sc(-c3ccc(Cl)cc3)cc2ncn1[C@H]1CCc2cc(CN3CCCC3)ccc2C1 [(S)-6-(4-Chlorophenyl)-3-(6-pyrrolidin-1-ylmethyl-1,2,3,4-tetrahydronaphthalen-2-yl)thieno[3,2-d]pyrimidin-4(3H)-one] | 
10 | 1.8 nM | > 100000 nM | CC(=O)N1CC2CC1CN2Cc1ccc2c(c1)CC[C@H](n1cnc3cc(-c4ccc(Cl)cc4)sc3c1=O)C2 (stereo partly drawn) [(S)-6-(4-Chlorophenyl)-3-[6-(5-acetyl-2,5-diaza-bicyclo[2.2.1]hept-2-ylmethyl)-1,2,3,4-tetrahydronaphthalen-2-yl)thieno[3,2-d]pyrimidin-4(3H)-one] | 
